ChEMBL document CHEMBL5321204, “Hybrids of delavirdine and piperdin-4-yl-aminopyrimidines (DPAPYs) as potent HIV-1 NNRTIs: Design, synthesis and biological activities” (Eur J Med Chem, 2023)

Assays:
[1] = system: Human immunodeficiency virus 1; experiment: Antiviral activity against HIV-1 K103 N mutant infected in human MT4 cells assessed as protection against virus induced cytopathic effect and measured after 5 days by MTT spectrophotometric assay; type: functional, organism-based; conditions: Human immunodeficiency virus 1, MT4, 120 h
[2] = Cytotoxicity against human MT4 cells assessed as reduction in cell viability incubated for 5 days by MTT spectrophotometric assay; type: toxicity, cell-based; conditions: time 5 day
[3] = system: Human immunodeficiency virus 2; experiment: Antiviral activity against HIV-2 ROD infected in human MT4 cells assessed as protection against virus induced cytopathic effect and measured after 5 days by MTT spectrophotometric assay; type: functional, organism-based; conditions: Human immunodeficiency virus 2, ROD, MT4, 120 h
[4] = system: Human immunodeficiency virus 1; experiment: microbe, parasite or virus in culture; conditions: Human immunodeficiency virus 1, IIIb, MT4, 120 h
Description: Antiviral activity against HIV-1 IIIb infected in human MT4 cells assessed as protection against virus induced cytopathic effect and measured after 5 days by MTT spectrophotometric assay

[5] = system: Human immunodeficiency virus 1; experiment: Antiviral activity against HIV-1 RES056 mutant infected in human MT4 cells assessed as protection against virus induced cytopathic effect and measured after 5 days by MTT spectrophotometric assay; type: functional, organism-based; conditions: Human immunodeficiency virus 1, MT4, 120 h
[6] = in vitro; conditions: human, MT4 cells
Description: Selectivity index, ratio of CC50 for cytotoxicity against human MT4 cells assessed as reduction in cell viability to EC50 for antiviral activity against HIV-1 IIIb infected in human MT4 cells assessed as reduction in virus induced cytopathic effect

[7] = system: Human immunodeficiency virus 1; experiment: Antiviral activity against HIV-1 Y181C mutant infected in human MT4 cells assessed as protection against virus induced cytopathic effect and measured after 5 days by MTT spectrophotometric assay; type: functional, organism-based; conditions: Human immunodeficiency virus 1, MT4, 120 h
[8] = system: Human immunodeficiency virus 1; experiment: Antiviral activity against HIV-1 L100I mutant infected in human MT4 cells assessed as protection against virus induced cytopathic effect and measured after 5 days by MTT spectrophotometric assay; type: functional, organism-based; conditions: Human immunodeficiency virus 1, MT4, 120 h
[9] = system: Human immunodeficiency virus 1; experiment: Antiviral activity against HIV-1 Y188L mutant infected in human MT4 cells assessed as protection against virus induced cytopathic effect and measured after 5 days by MTT spectrophotometric assay; type: functional, organism-based; conditions: Human immunodeficiency virus 1, MT4, 120 h
[10] = system: Human immunodeficiency virus 1; experiment: Antiviral activity against HIV-1 F227L-V106A mutant infected in human MT4 cells assessed as protection against virus induced cytopathic effect and measured after 5 days by MTT spectrophotometric assay; type: functional, organism-based; conditions: Human immunodeficiency virus 1, MT4, 120 h
[11] = target: Human immunodeficiency virus type 1 reverse transcriptase (Human immunodeficiency virus 1, UniProt Q72547); experiment: Inhibition of HIV-1 reverse transcriptase using [2,8-3H]dGTP as substrate by […] assay
[12] = system: Human immunodeficiency virus 1; experiment: Antiviral activity against HIV-1 E138K mutant infected in human MT4 cells assessed as protection against virus induced cytopathic effect and measured after 5 days by MTT spectrophotometric assay; type: functional, organism-based; conditions: Human immunodeficiency virus 1, MT4, 120 h

| SMILES | EC50 [1] [µM] | CC50 at 120 h [2] [µM] | EC50 [3] [µM] | EC50 [4] [µM] | EC50 [5] [µM] | selectivity ratio [6] | EC50 [7] [µM] | EC50 [8] [µM] | EC50 [9] [µM] | EC50 [10] [µM] | IC50 [11] [µM] | EC50 [12] [µM] |
| --- | --- | --- | --- | --- | --- | --- | --- | --- | --- | --- | --- | --- |
| CS(=O)(=O)Nc1ccc2[nH]c(C(=O)N3CCC(Nc4nccc(Oc5cccc(Br)c5)n4)CC3)cc2c1 | 7.6 | 14 | > 14 | 0.67 | > 14 | 21 | 8.1 | 7.2 | > 14 | 8.1 | 3.4 | 3.5 |
| CS(=O)(=O)Nc1ccc2[nH]c(C(=O)N3CCC(Nc4nccc(Oc5ccc(Br)cc5F)n4)CC3)cc2c1 | 23 | 80 | > 80 | 0.94 | > 80 | 84 | 29 | 32 | > 80 | > 80 | 0.11 | 3 |
| CS(=O)(=O)Nc1ccc2[nH]c(C(=O)N3CCC(Nc4nccc(Oc5cccc(Cl)c5)n4)CC3)cc2c1 | 8.2 | 14 | > 14 | 0.7 | > 14 | 20 | 9 | 8.1 | 9.2 | 8.8 | 0.34 | 5.5 |
| CS(=O)(=O)Nc1ccc2[nH]c(C(=O)N3CCC(Nc4nccc(Oc5ccc(C(F)(F)F)cc5)n4)CC3)cc2c1 | > 18 | 18 | > 18 | 1.8 | > 18 | 10 | > 18 | > 18 | > 18 | > 18 | 1.3 | 5.7 |
| Cc1cccc(Oc2ccnc(NC3CCN(C(=O)c4cc5cc(NS(C)(=O)=O)ccc5[nH]4)CC3)n2)c1 | > 27 | 27 | > 27 | 5.5 | > 27 | 5 | > 27 | > 27 | > 27 | > 27 | 1.2 | > 27 |
| CS(=O)(=O)Nc1ccc2[nH]c(C(=O)N3CCC(Nc4nccc(Oc5cccc(C#N)c5)n4)CC3)cc2c1 | > 29 | 29 | > 29 | 3.7 | > 29 | 8 | > 29 | > 29 | > 29 | > 28 | 0.6 | 8.7 |
| CS(=O)(=O)Nc1ccc2[nH]c(C(=O)N3CCC(Nc4nccc(Oc5ccccc5Cl)n4)CC3)cc2c1 | 6.4 | 15 | > 15 | 0.43 | > 15 | 35 | 5.9 | 7.6 | 7.8 | 8.3 | 1.6 | 0.98 |
| O=C1Nc2ccc(Cl)cc2[C@@](C#CC2CC2)(C(F)(F)F)O1 [EFAVIRENZ] | 0.14 | > 6.3 | – | – | 0.57 | – | – | 0.067 | 0.32 | 0.41 | – | 0.007 |
| Cc1cc(C#N)cc(C)c1Oc1nc(Nc2ccc(C#N)cc2)nc(N)c1Br [ETRAVIRINE] | 0.004 | > 4.6 | – | – | 0.1 | > 1430 | – | 0.012 | 0.03 | 0.03 | – | 0.017 |
| Nc1ccn([C@@H]2CS[C@H](CO)O2)c(=O)n1 [LAMIVUDINE] | 4.7 | > 87 | – | 8.3 | 10 | > 11 | 3.5 | 1.7 | 4.1 | 8.2 | – | 7.4 |
| Cc1ccnc2c1NC(=O)c1cccnc1N2C1CC1 [NEVIRAPINE] | 7.4 | > 15 | – | 0.19 | > 15 | – | – | 2.2 | > 15 | > 15 | – | 0.31 |
| Cc1cn([C@H]2C[C@H](N=[N+]=[N-])[C@@H](CO)O2)c(=O)[nH]c1=O [ZIDOVUDINE] | 0.032 | > 7.1 | 0.021 | 0.024 | 0.035 | > 290 | 0.019 | 0.009 | 0.023 | 0.026 | – | – |
